{"source": "ChEMBL document CHEMBL1143641", "about": "“Structure-based design of 7-carbamate analogs of geldanamycin” (Bioorg Med Chem Lett, 2005)", "key": {"[1]": {"target": "Heat shock protein HSP 90-alpha (Homo sapiens, UniProt P07900)", "experiment": "Binding affinity for human heat shock protein 90 in scintillation proximity assay"}, "SK-BR-3": {"tested_on": "SK-BR-3", "experiment": "Cytotoxicity against SKBr3 cells", "type": "functional, cell-based", "settings": "Homo sapiens"}}}
{"smiles": "CO[C@H]1C[C@H](C)CC2=C(NCCN(C)C)C(=O)C=C(NC(=O)/C(C)=C/C=C3/NC(=O)O[C@@H](/C(C)=C/[C@H](C)[C@H]1O)[C@H]3OC)C2=O", "values": [{"measurement": "Kd", "setting": "[1]", "value": "> 100000", "unit": "nM"}, {"measurement": "IC50", "setting": "SK-BR-3", "value": 4500, "unit": "nM"}]}
{"smiles": "CO[C@H]1/C=C\\C=C(/C)C(=O)NC2=CC(=O)C(NCCN(C)C)=C(C[C@@H](C)C[C@H](OC)[C@H](O)[C@@H](C)/C=C(\\C)[C@@H]1OC(=O)NCC(N)=O)C2=O", "values": [{"measurement": "Kd", "setting": "[1]", "value": "> 100000", "unit": "nM"}, {"measurement": "IC50", "setting": "SK-BR-3", "value": 1400, "unit": "nM"}]}
{"smiles": "CO[C@H]1/C=C\\C=C(/C)C(=O)NC2=CC(=O)C(N3CCC3)=C(C[C@@H](C)C[C@H](OC)[C@H](O)[C@@H](C)/C=C(\\C)[C@@H]1OC(=O)NN)C2=O", "values": [{"measurement": "Kd", "setting": "[1]", "value": "> 100000", "unit": "nM"}, {"measurement": "IC50", "setting": "SK-BR-3", "value": 530, "unit": "nM"}]}
{"smiles": "CNC(=O)O[C@H]1/C(C)=C/[C@H](C)[C@@H](O)[C@@H](OC)C[C@H](C)CC2=C(NCCN(C)C)C(=O)C=C(NC(=O)/C(C)=C/C=C\\[C@@H]1OC)C2=O", "values": [{"measurement": "Kd", "setting": "[1]", "value": "> 100000", "unit": "nM"}, {"measurement": "IC50", "setting": "SK-BR-3", "value": 420, "unit": "nM"}]}
{"smiles": "CONC(=O)O[C@H]1/C(C)=C/[C@H](C)[C@@H](O)[C@@H](OC)C[C@H](C)CC2=C(NCCN(C)C)C(=O)C=C(NC(=O)/C(C)=C/C=C\\[C@@H]1OC)C2=O", "values": [{"measurement": "Kd", "setting": "[1]", "value": "> 100000", "unit": "nM"}, {"measurement": "IC50", "setting": "SK-BR-3", "value": 490, "unit": "nM"}]}
{"smiles": "CO[C@H]1/C=C\\C=C(/C)C(=O)NC2=CC(=O)C(NCCN(C)C)=C(C[C@@H](C)C[C@H](OC)[C@H](O)[C@@H](C)/C=C(\\C)[C@@H]1OC(=O)NCCN(C)C)C2=O", "values": [{"measurement": "Kd", "setting": "[1]", "value": "> 100000", "unit": "nM"}, {"measurement": "IC50", "setting": "SK-BR-3", "value": 460, "unit": "nM"}]}
{"smiles": "CO[C@H]1/C=C\\C=C(/C)C(=O)NC2=CC(=O)C(N)=C(C[C@@H](C)C[C@H](OC)[C@H](O)[C@@H](C)/C=C(\\C)[C@@H]1OC(N)=O)C2=O", "values": [{"measurement": "Kd", "setting": "[1]", "value": 100, "unit": "nM"}]}
{"smiles": "CO[C@H]1/C=C\\C=C(/C)C(=O)NC2=CC(=O)C(NCCN(C)C)=C(C[C@@H](C)C[C@H](OC)[C@H](O)[C@@H](C)/C=C(\\C)[C@@H]1OC(=O)N(C)N)C2=O", "values": [{"measurement": "Kd", "setting": "[1]", "value": "> 100000", "unit": "nM"}, {"measurement": "IC50", "setting": "SK-BR-3", "value": 2500, "unit": "nM"}]}
{"smiles": "CO[C@H]1/C=C\\C=C(/C)C(=O)NC2=CC(=O)C(NCCN(C)C)=C(C[C@@H](C)C[C@H](OC)[C@H](O)[C@@H](C)/C=C(\\C)[C@@H]1OC(=O)NO)C2=O", "values": [{"measurement": "Kd", "setting": "[1]", "value": 18000, "unit": "nM"}, {"measurement": "IC50", "setting": "SK-BR-3", "value": 220, "unit": "nM"}]}
{"smiles": "CO[C@H]1/C=C\\C=C(/C)C(=O)NC2=CC(=O)C(N3CCC3)=C(C[C@@H](C)C[C@H](OC)[C@H](O)[C@@H](C)/C=C(\\C)[C@@H]1OC(=O)NO)C2=O", "values": [{"measurement": "Kd", "setting": "[1]", "value": "> 100000", "unit": "nM"}, {"measurement": "IC50", "setting": "SK-BR-3", "value": 640, "unit": "nM"}]}
{"smiles": "CO[C@H]1/C=C\\C=C(/C)C(=O)NC2=CC(=O)C(NCCF)=C(C[C@@H](C)C[C@H](OC)[C@H](O)[C@@H](C)/C=C(\\C)[C@@H]1OC(=O)NN)C2=O", "values": [{"measurement": "Kd", "setting": "[1]", "value": "> 100000", "unit": "nM"}, {"measurement": "IC50", "setting": "SK-BR-3", "value": 2100, "unit": "nM"}]}
{"smiles": "CO[C@H]1/C=C\\C=C(/C)C(=O)NC2=CC(=O)C(NCCF)=C(C[C@@H](C)C[C@H](OC)[C@H](O)[C@@H](C)/C=C(\\C)[C@@H]1OC(=O)NO)C2=O", "values": [{"measurement": "Kd", "setting": "[1]", "value": "> 100000", "unit": "nM"}, {"measurement": "IC50", "setting": "SK-BR-3", "value": 1500, "unit": "nM"}]}
{"smiles": "CO[C@H]1/C=C\\C=C(/C)C(=O)NC2=CC(=O)C(N)=C(C[C@@H](C)C[C@H](OC)[C@H](O)[C@@H](C)/C=C(\\C)[C@@H]1OC(=O)c1ccc[nH]1)C2=O", "values": [{"measurement": "Kd", "setting": "[1]", "value": "> 100000", "unit": "nM"}, {"measurement": "IC50", "setting": "SK-BR-3", "value": 1900, "unit": "nM"}]}
{"smiles": "CO[C@H]1/C=C\\C=C(/C)C(=O)NC2=CC(=O)C(NCCN(C)C)=C(C[C@@H](C)C[C@H](OC)[C@H](O)[C@@H](C)/C=C(\\C)[C@@H]1OC(=O)c1c[nH]cn1)C2=O", "values": [{"measurement": "Kd", "setting": "[1]", "value": "> 100000", "unit": "nM"}, {"measurement": "IC50", "setting": "SK-BR-3", "value": 1200, "unit": "nM"}]}
{"smiles": "CO[C@H]1/C=C\\C=C(/C)C(=O)NC2=CC(=O)C(NCCN(C)C)=C(C[C@@H](C)C[C@H](OC)[C@H](O)[C@@H](C)/C=C(\\C)[C@@H]1OC(=O)NN)C2=O", "values": [{"measurement": "Kd", "setting": "[1]", "value": "> 100000", "unit": "nM"}, {"measurement": "IC50", "setting": "SK-BR-3", "value": 140, "unit": "nM"}]}
{"smiles": "CO[C@H]1/C=C\\C=C(/C)C(=O)NC2=CC(=O)C(NCCN(C)C)=C(C[C@@H](C)C[C@H](OC)[C@H](O)[C@@H](C)/C=C(\\C)[C@@H]1OC(=O)NCCO)C2=O", "values": [{"measurement": "Kd", "setting": "[1]", "value": "> 100000", "unit": "nM"}, {"measurement": "IC50", "setting": "SK-BR-3", "value": 390, "unit": "nM"}]}
{"smiles": "CO[C@H]1/C=C\\C=C(/C)C(=O)NC2=CC(=O)C(NCCN(C)C)=C(C[C@@H](C)C[C@H](OC)[C@H](O)[C@@H](C)/C=C(\\C)[C@@H]1OC(=O)c1ccc[nH]1)C2=O", "values": [{"measurement": "Kd", "setting": "[1]", "value": "> 100000", "unit": "nM"}, {"measurement": "IC50", "setting": "SK-BR-3", "value": 410, "unit": "nM"}]}
{"smiles": "CO[C@H]1/C=C\\C=C(/C)C(=O)NC2=CC(=O)C(NCCF)=C(C[C@@H](C)C[C@H](OC)[C@H](O)[C@@H](C)/C=C(\\C)[C@@H]1OC(N)=O)C2=O", "values": [{"measurement": "Kd", "setting": "[1]", "value": 800, "unit": "nM"}]}
{"smiles": "CO[C@H]1/C=C\\C=C(/C)C(=O)NC2=CC(=O)C(N3CCC3)=C(C[C@@H](C)C[C@H](OC)[C@H](O)[C@@H](C)/C=C(\\C)[C@@H]1OC(N)=O)C2=O", "values": [{"measurement": "Kd", "setting": "[1]", "value": 1400, "unit": "nM"}]}
